Results reported in ChEMBL document CHEMBL1201862, “PubChem BioAssay data set” (2004).
The source made the active and inactive calls.

Legend:
[1] = target: T1, Calpain-2 catalytic subunit (Sus scrofa, UniProt P43367); test: pig calpain II inhibitor potency, dose response, biochemical, fluorogenic peptide substrate (AID 1420); type: functional
T1 sequence (P43367 whole entry): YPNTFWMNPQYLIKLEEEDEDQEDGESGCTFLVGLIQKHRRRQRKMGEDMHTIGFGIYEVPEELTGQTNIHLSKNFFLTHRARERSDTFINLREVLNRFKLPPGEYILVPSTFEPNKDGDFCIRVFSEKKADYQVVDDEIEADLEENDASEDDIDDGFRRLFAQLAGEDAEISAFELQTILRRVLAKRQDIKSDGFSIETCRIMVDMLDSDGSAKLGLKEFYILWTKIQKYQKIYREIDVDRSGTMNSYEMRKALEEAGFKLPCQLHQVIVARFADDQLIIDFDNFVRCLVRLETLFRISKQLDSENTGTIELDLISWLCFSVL

[2] = inhibitors of SNCA 5'UTR-driven reporter translation, confirmation, H4 neuroglioma cells, luminescence (AID 1988); type: functional, cell-based
[3] = inhibitors of firefly luciferase expression or activity, dose response, H4 neuroglioma cells, luminescence (AID 1990); type: functional, cell-based
[4] = Luminescence Cell-Based Dose Response HTS to Identify Inhibitors of 5'UTR Stem-Loop Driven Prion Protein mRNA Translation in H4 Neuroglioblastoma Cells. [Related pubchem assays: 1827 (Project Summary), 1813 (Primary HTS)]; type: functional
[5] = target: FAD-linked sulfhydryl oxidase ALR (Homo sapiens, UniProt P55789); test: inhibitors of human ALR sulfhydryl oxidase, dose response, biochemical, H2O2 detection, luminescence, cherry-pick (AID 493248)
BJ [6] = test: cells; type: functional, cell-based; conditions: Homo sapiens
BJ [7] = test: cytotoxicity toward BJ-TERT fibroblasts, dose response, cell-based, RAS-independent, luminescence (AID 1933); type: functional; conditions: Homo sapiens
[8] = cytotoxicity toward DRD oncogenic fibroblasts, dose response, cell-based, non-viral oncogenic, luminescence (AID 1934); type: functional; conditions: Homo sapiens
BJ [9] = test: cytotoxicity toward BJ-TERT-LT-ST fibroblasts, dose response, cell-based, RAS-independent, luminescence (AID 1935); type: functional; conditions: Homo sapiens;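 also: BJ fibroblasts immortalized with TERT plus LT and ST oncogenes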
[10] = growth suppression of PTEN-null colon cells, dose response, cell-based, HCT116 PTEN knockout (AID 1047); type: functional;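 also: HCT116 colon tumor cells with PTEN knocked out; cells exposed to compound for 60 hours before readout; potency for loss of cell viability measured by luminescence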
[11] = inhibitors of clade B AD8 Env fusion, dose response, cell-based, cherry-pick (AID 652062); type: functional;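 also: luciferase signal from cell-cell fusion driven by HIV-1 clade B AD8 Env; potency is for inhibitors of fusion seen as a drop in luminescence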
[12] = inhibitors of HIV Env-driven cell fusion, dose response, cherry-pick (AID 652057); type: functional, cell-based
[13] = P. falciparum Dd2 growth inhibitors, dose response, SYBR Green, cherry-picked samples (AID 1159567); type: functional, cell-based

FAD-linked sulfhydryl oxidase ALR, sequence (P55789 whole entry): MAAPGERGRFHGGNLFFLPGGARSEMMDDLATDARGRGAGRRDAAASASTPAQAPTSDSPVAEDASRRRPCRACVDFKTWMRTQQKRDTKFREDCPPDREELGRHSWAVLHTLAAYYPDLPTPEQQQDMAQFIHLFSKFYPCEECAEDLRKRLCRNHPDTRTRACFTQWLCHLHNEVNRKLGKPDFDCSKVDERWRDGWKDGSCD

## COc1cc(OC)cc(C(=O)Nc2ccc3c(c2)COC3=O)c1
[1]
  IC50: 5.36 µM (not active)

## CCc1cccc(CC)c1NC(=O)c1cc(CN2C(=O)c3ccccc3C2=O)ccc1OC
[1]
  IC50: 3.81 µM (not active)

## c1ccc(Oc2nc(Oc3ccccc3)nc(N3CCOCC3)n2)cc1
[1]
  IC50: < 0.4 µM (not active)

## CC(=O)Nc1nc2ccccc2n1Cc1ccccc1C
[2]
  EC50: 11.5 µM (active)
[3]
  EC50: 14.5 µM (active)
[4]
  EC50: 14.2 µM (active)

## COc1ccc(C2=NOC(Cn3c(Cc4ccc(Cl)cc4)nc4c3c(=O)n(C)c(=O)n4C)C2)cc1 (stereo unspecified)
[2]
  EC50: > 120 µM (not active)
[3]
  EC50: > 120 µM (not active)
[4]
  EC50: > 120 µM (not active)

## O=C(O)c1cccc(NC(=O)c2cc(-c3cccc(Cl)c3)nc3ccccc23)c1
[5]
  AC50: 0.01 µM (active)

## CC(C)OC(=O)CSc1nnc(COc2ccc([N+](=O)[O-])cc2)n1C
[1]
  IC50: 9.11 µM (not active)

## O=C(CCN1C(=O)/C(=C/c2ccc3c(c2)OCO3)SC1=S)Nc1ccccc1
[1]
  IC50: 24.8 µM (not active)

## Cc1ccc(C(=O)NNC(=O)c2ccc3ncccc3c2)cc1
[1]
  IC50: 9.29 µM (not active)

## COc1ccc(-n2c(=S)[nH]c3cc(C(=O)Nc4ccc(OC)c(OC)c4)ccc3c2=O)cc1
[1]
  IC50: 22.5 µM (not active)

## COc1cc2c(cc1OC)CN(C(=O)c1cc(=O)c3ccccc3o1)CC2
BJ [6]
  EC50: 43.3 µM (active)
BJ [7]
  EC50: 18.6 µM (active)
[8]
  EC50: 14.1 µM (active)
BJ [9]
  EC50: > 150 µM (inconclusive)

## O=C(CCC(=O)c1cccs1)Nc1ccc(N2CCCCC2)cc1
[5]
  AC50: 6.49 µM (active)

## COc1ccc(C(=O)NNC2=Nc3cccc4cccc2c34)cc1
[2]
  EC50: > 120 µM (not active)
[3]
  EC50: > 120 µM (not active)
[4]
  EC50: 16.6 µM (active)

## Cn1nc(CC(=O)N2CCN(c3ccccc3)CC2)c2ccccc2c1=O
[1]
  IC50: 13.1 µM (not active)

## CCCn1c(SCC(=O)c2ccc3c(c2)NC(=O)CO3)nc2ccccc21
[10]
  EC50: 22.4 µM (active)

## O=S(=O)(c1ccccc1)c1cc(O)ccc1O
[5]
  AC50: 6.08 µM (active)

## CC(C)c1ccc(Nc2c([N+](=O)[O-])c(=O)n(C)c3ccccc23)cc1
[1]
  IC50: 3.37 µM (not active)

## COc1ccccc1NC(=O)c1cc(O)nc2ccccc12
[5]
  AC50: 0.202 µM (active)

## Cc1c(C(=O)c2ccc(Cl)c([N+](=O)[O-])c2)c2ccccn2c1CCC#N
BJ [6]
  EC50: > 150 µM (not active)
BJ [7]
  EC50: > 150 µM (not active)
[8]
  EC50: > 150 µM (not active)
BJ [9]
  EC50: > 150 µM (inconclusive)

## O=C(NCCCn1ccnc1)C(=O)NCC(c1ccco1)N1CCN(c2ccccc2)CC1 (stereo unspecified)
[5]
  AC50: 3.74 µM (active)

## COc1ccc(N2CCN(C(=O)CCn3nnc4ccccc43)CC2)cc1
[5]
  AC50: 6.11 µM (active)

## Cc1ccc(S(=O)(=O)N(C)C[C@H]2Oc3ncc(Br)cc3C(=O)N([C@@H](C)CO)C[C@@H]2C)cc1
[11]
  AC50: 5.51 µM (active)
[12]
  AC50: 4.57 µM (active)

## COc1cccc2c(N/N=C/c3ccccc3)cc(C)nc12
[5]
  AC50: 6.41 µM (active)

## COc1cc(/C=N/n2c(C)nnc2S)ccc1OCc1ccccc1
[5]
  AC50: 0.861 µM (active)

## COC(=O)N/N=C/c1cn(Cc2ccc(F)cc2)c2ccccc12
[2]
  EC50: 7.94 µM (active)
[3]
  EC50: 9.2 µM (active)
[4]
  EC50: 12.8 µM (active)

## C[C@H]1CN([C@@H](C)CO)C(=O)c2c(c3ccccc3n2C)-c2ccccc2CO[C@@H]1CN(C)S(=O)(=O)c1ccc(C(F)(F)F)cc1
[13]
  AC50: 4.6 µM (active)

## CCS(=O)(=O)N1CCC2(CC1)CN(Cc1cc(F)ccc1F)[C@H](CO)c1c2c2ccc(OC)cc2n1C
[13]
  AC50: 6.16 µM (active)

## OC[C@@H]1Nc2ccc(C3=CCCCC3)cc2[C@@H]2[C@H]1CCN2Cc1nccs1
[13]
  AC50: 6.24 µM (active)

## N#C[C@@H]1[C@H](c2ccccc2-c2cccc(F)c2)[C@H](CO)N1C(=O)C1CCCC1
[13]
  AC50: 2.8 µM (active)

## C/C=C/c1ccc([C@@H]2[C@H]3CNC[C@@H]2N3Cc2cc(F)ccc2F)cc1
[13]
  AC50: 4 µM (active)

## C[C@H]1CN([C@@H](C)CO)C(=O)c2c(c3ccccc3n2C)-c2ccccc2CO[C@@H]1CN(C)Cc1ccc(Oc2ccccc2)cc1
[13]
  AC50: 1.76 µM (active)
